Test results: ChEMBL document CHEMBL1126675, “Structure-based design of inhibitors of purine nucleoside phosphorylase. 1. 9-(arylmethyl) derivatives of 9-deazaguanine” (J Med Chem, 1993)

What was measured:
[1] = biological target: T1, Purine nucleoside phosphorylase (Bos taurus, UniProt P55859); experiment: Inhibition of Purine nucleoside phosphorylase was evaluated against the enzyme from calf spleen in 50 mM phosphate
T1 sequence (P55859 whole entry): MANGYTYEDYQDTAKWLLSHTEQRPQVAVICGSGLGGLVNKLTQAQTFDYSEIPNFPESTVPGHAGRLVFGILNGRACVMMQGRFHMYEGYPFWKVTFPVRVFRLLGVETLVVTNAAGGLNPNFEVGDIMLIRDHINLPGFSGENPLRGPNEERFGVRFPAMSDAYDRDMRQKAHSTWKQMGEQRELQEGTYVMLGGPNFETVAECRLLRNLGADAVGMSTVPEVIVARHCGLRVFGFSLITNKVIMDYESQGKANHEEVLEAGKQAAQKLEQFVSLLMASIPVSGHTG

[2] = biological target: T1, Purine nucleoside phosphorylase; experiment: Inhibition of purine nucleoside phosphorylase against the enzyme from calf spleen in 1 mM phosphate
[3] = biological target: T2, Purine nucleoside phosphorylase (Homo sapiens, UniProt P00491); experiment: Inhibition of Purine nucleoside phosphorylase was evaluated against the enzyme from Human erythrocytic in 50 mM phosphate; format: tissue-based
T2 sequence (P00491 whole entry): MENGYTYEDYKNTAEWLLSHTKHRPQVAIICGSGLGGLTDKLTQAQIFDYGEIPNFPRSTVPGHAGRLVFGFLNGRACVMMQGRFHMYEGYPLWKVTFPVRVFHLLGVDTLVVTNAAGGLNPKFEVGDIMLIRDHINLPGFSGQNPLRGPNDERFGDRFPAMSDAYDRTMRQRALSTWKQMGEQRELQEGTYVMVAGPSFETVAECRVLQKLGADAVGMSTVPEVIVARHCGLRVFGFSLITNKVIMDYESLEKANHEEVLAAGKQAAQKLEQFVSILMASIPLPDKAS

[4] = biological target: T1, Purine nucleoside phosphorylase; experiment: Inhibition of Purine nucleoside phosphorylase was evaluated against the enzyme from calf spleen in 1 mM phosphate; format: tissue-based

IC50 [1]	IC50 [2]	Structure (SMILES)	IC50 [3]	also measured
10000 nM	240 nM	Nc1nc(O)c2[nH]cc(Cc3cc(Cl)cc(Cl)c3Cl)c2n1	–	–
–	–	Nc1nc(O)c2[nH]c(Nc3cccnc3)nc2n1	21900 nM	–
–	–	Nc1nc(O)c2c(n1)CC(Cc1ccsc1)=N2	67 nM	–
–	–	Nc1nc(O)c2c(n1)CC(NCc1ccsc1)=N2	630 nM	–
–	–	Cc1ccsc1CC1=Nc2c(O)nc(N)nc2C1	47600 nM	–
–	–	Nc1nc(O)c2c(n1)CC(NCc1cccs1)=N2	1000 nM	–
–	–	Nc1nc(O)c2c(n1)CC(NCc1ccco1)=N2	750 nM	–
–	–	Nc1nc(O)c2[nH]c(Cc3ccsc3)nc2n1	11000 nM	–
–	–	Nc1nc(O)c2[nH]c(Cc3ccco3)nc2n1	17900 nM	–
–	–	Cc1ccsc1Cc1nc2nc(N)[nH]c(=O)c2[nH]1	47600 nM	–
–	–	Nc1nc(O)c2c(n1)CC(Cc1ccccc1)=N2	85 nM	–
–	0.63 nM	NC1=NC(=O)C2NC(N)=C(Cc3ccsc3)C2N1 (configuration not stated)	–	–
–	–	Nc1nc(O)c2[nH]c(Cc3cccs3)nc2n1	11000 nM	–
220 nM	24 nM	Nc1nc2c(Cc3cccc(F)c3)c[nH]c2c(=O)[nH]1	–	–
270 nM	57 nM	Cc1cccc(Cc2c[nH]c3c(=O)[nH]c(N)nc23)c1	–	–
250 nM	17 nM	Nc1nc2c(Cc3ccc(Cl)c(Cl)c3)c[nH]c2c(=O)[nH]1	–	–
–	–	NC1=NC(=O)C2NC=C(Cc3ccccc3)C2N1 (configuration not stated)	–	Ki [4]: 12 nM; Ki [1]: 100 nM
–	–	Nc1nc(O)c2[nH]c(Cc3ccccc3)nc2n1	29600 nM	–

IC50 [1]	IC50 [2]	Structure (SMILES)	IC50 [3]	also measured
660 nM	82 nM	COc1cccc(Cc2c[nH]c3c(O)nc(N)nc23)c1	–	–
160 nM	160 nM	Nc1nc(O)c2nc(N)n(Cc3cccs3)c2n1	–	–
2000 nM	270 nM	Nc1nc2c(Cc3ccccc3O)c[nH]c2c(=O)[nH]1	–	–
–	–	Nc1nc(O)c2c(n1)CC(NCc1ccccc1)=N2	850 nM	–
–	–	Cc1ccsc1CNC1=Nc2c(O)nc(N)nc2C1	4050 nM	–
–	–	Nc1nc(O)c2c(n1)CC(Cc1ccco1)=N2	57 nM	–
270 nM	23 nM	Nc1nc2c(Cc3ccc(I)cc3)c[nH]c2c(=O)[nH]1	–	–
–	–	Nc1nc(O)c2c(n1)CC(Cc1cccs1)=N2	30 nM	–
–	–	Nc1nc2nc(NCc3ccccc3)[nH]c2c(=O)[nH]1	470 nM	–
–	–	Nc1nc2nc(-c3cccnc3)[nH]c2c(=O)[nH]1	57000 nM	–
–	–	Cc1ccsc1CNc1nc2[nH]c(N)nc(O)c-2n1	4050 nM	–
–	83 nM	Nc1nc(O)c2[nH]cc(Cc3ccco3)c2n1	–	–
–	–	Nc1nc(O)c2[nH]c(NCc3ccco3)nc2n1	250 nM	–
–	–	Nc1nc(O)c2[nH]c(NCc3cccs3)nc2n1	160 nM	–
190 nM	36 nM	Nc1nc2c(Cc3cccc(C(F)(F)F)c3)c[nH]c2c(=O)[nH]1	–	–
–	–	Nc1nc2nc(NCc3ccsc3)[nH]c2c(=O)[nH]1	85 nM	–
2300 nM	260 nM	Nc1nc(O)c2[nH]cc(Cc3ccc(O)cc3)c2n1	–	–
2520 nM	120 nM	Nc1nc(O)c2[nH]cc(Cc3ccccc3Cl)c2n1	–	–

Structure (SMILES)	IC50 [1]	IC50 [2]	IC50 [3]	also measured
Nc1nc2c(Cc3cccc(Oc4ccccc4)c3)c[nH]c2c(=O)[nH]1	740 nM	–	–	–
NC1=NC(=O)C2NC=C(Cc3ccsc3)C2N1 (configuration not stated)	–	0.067 nM	–	Ki [4]: 15 nM
Nc1nc2c(Cc3cccc(Cl)c3)c[nH]c2c(=O)[nH]1	150 nM	20 nM	–	–
Nc1nc(O)c2c(n1)CC(c1cccnc1)=N2	0.16 nM	–	–	–
Nc1nc(O)c2[nH]cc(Cc3ccsc3)c2n1	–	25 nM	–	–
Nc1nc2c(Cc3cccnc3)c[nH]c2c(=O)[nH]1 [PELDESINE]	190 nM	25 nM	–	–
